According to DBAASP:
≈ marks a conversion by molar mass, not a printed value.

Tests used:
Assay in all cases: ≥ marks a high value that may be exact or a test limit, other limits are often not marked, values filed in µg/mL are converted to µM
[1] = system: Escherichia coli
[2] = system: Staphylococcus aureus
[3] = system: Escherichia coli ATCC 25922
[4] = system: Staphylococcus epidermidis ATCC 12228
[5] = system: Pseudomonas aeruginosa
[6] = system: Staphylococcus aureus ATCC 29213
[7] = system: Pseudomonas aeruginosa ATCC 27853

Compound	MIC [1] [µM]	MIC [2] [µM]	MIC [3] [µM]	other results
CC(C)C[C@H](NC(=O)[C@H](CCCN=C(N)N)NC(=O)CNC(=O)CNC(=O)[C@@H](N)CCCN=C(N)N)C(=O)N[C@H]1CSSC[C@@H](C(=O)N[C@H](C(=O)O)[C@@H](C)O)NC(=O)[C@H](C(C)C)NC(=O)[C@@H]2CSSC[C@H](NC(=O)[C@H](Cc3ccc(O)cc3)NC1=O)C(=O)N[C@@H](CCCN=C(N)N)C(=O)N[C@@H](CCCN=C(N)N)C(=O)N[C@@H](CCCN=C(N)N)C(=O)N[C@@H](Cc1ccccc1)C(=O)N2 [RGGRLCYCRRRFCVCT]	0.359 (≈ 0.699 µg/mL)			
C[C@H](NC(=O)[C@H](C)NC(=O)[C@H](CCCCN)NC(=O)[C@H](C)NC(=O)[C@H](Cc1ccccc1)NC(=O)[C@H](Cc1c[nH]c2ccccc12)NC(=O)[C@H](CCCCN)NC(=O)[C@H](Cc1c[nH]c2ccccc12)NC(=O)[C@H](CCCCN)NC(=O)[C@H](CCCCN)NC(=O)[C@H](C)NC(=O)[C@H](Cc1c[nH]c2ccccc12)NC(=O)[C@@H](N)CCCCN)C(=O)N[C@@H](Cc1c[nH]c2ccccc12)C(=O)N[C@@H](CCCCN)C(=O)N[C@@H](Cc1c[nH]c2ccccc12)C(=O)N[C@@H](Cc1ccc(O)cc1)C(=O)N[C@@H](CCCCN)C(=O)N[C@@H](CCCCN)C(N)=O [KWAKKWKWFAKAAWKWYKK]	> 38.9	> 38.9		
CC[C@H](C)[C@H](NC(=O)CN)C(=O)N[C@@H](CCCCN)C(=O)N[C@@H](CCCCN)C(=O)N[C@@H](Cc1c[nH]c2ccccc12)C(=O)N[C@@H](CC(C)C)C(=O)N[C@@H](Cc1cnc[nH]1)C(=O)N[C@@H](CO)C(=O)N[C@@H](C)C(=O)N[C@@H](CCCCN)C(=O)N[C@@H](CCCCN)C(=O)N[C@@H](Cc1ccccc1)C(=O)NCC(=O)N[C@@H](CCCCN)C(=O)N[C@@H](CCCCN)C(=O)N[C@@H](Cc1ccccc1)C(=O)N[C@H](C(=O)N[C@@H](CCCCN)C(=O)N[C@@H](CCCCN)C(=O)N[C@H](C(=O)N[C@@H](CCSC)C(=O)N[C@@H](CC(N)=O)C(=O)N[C@@H](CO)C(N)=O)[C@@H](C)CC)C(C)C [GIKKWLHSAKKFGKKFVKKIMNS]			0.63 (≈ 1.7 µg/mL)	MIC [4]: 0.16 µM (≈ 0.433 µg/mL)
CC[C@H](C)[C@H](N)C(=O)N[C@@H](CC(N)=O)C(=O)N[C@@H](Cc1c[nH]c2ccccc12)C(=O)N[C@@H](CC(C)C)C(=O)N[C@@H](CCCCN)C(=O)N[C@@H](CC(C)C)C(=O)NCC(=O)N[C@@H](CCCCN)C(=O)N[C@@H](CCCCN)C(=O)N[C@H](C(=O)N[C@@H](CC(C)C)C(=O)NCC(=O)N[C@@H](C)C(=O)N[C@@H](CC(C)C)C(N)=O)[C@@H](C)CC [INWLKLGKKILGAL]		15.5 (≈ 24.3 µg/mL)		MIC [5]: 86.6 µM (≈ 136 µg/mL)
CC[C@H](C)[C@H](NC(=O)[C@H](Cc1c[nH]c2ccccc12)NC(=O)[C@H](CCCCN)NC(=O)[C@@H]1CCCN1C(=O)[C@H](CC(C)C)NC(=O)[C@H](CCCCN)NC(=O)CNC(=O)[C@@H](NC(=O)[C@@H](NC(=O)[C@H](CO)NC(=O)[C@@H](NC(=O)[C@@H](NC(=O)[C@H](CCCCN)NC(=O)[C@H](CCC(N)=O)NC(=O)[C@H](C)N)[C@@H](C)CC)[C@@H](C)CC)[C@@H](C)O)[C@@H](C)CC)C(=O)N[C@H](C(=O)N[C@@H](CCCCN)C(=O)N[C@H](C(=O)N[C@H](C(=O)N[C@@H](CC(N)=O)C(=O)N[C@@H](CCCCN)C(=O)N[C@@H](Cc1ccccc1)C(=O)N[C@H](C(=O)N[C@@H](CCCCN)C(=O)N[C@@H](CCCCN)C(=O)O)[C@@H](C)O)C(C)C)[C@@H](C)O)[C@@H](C)CC [AQKIISTIGKLPKWIIKTVNKFTKK]	2.5 (≈ 7.21 µg/mL)			
CC(C)C[C@H](NC(=O)[C@H](CCCCN)NC(=O)[C@@H]1CSSC[C@H](NC(=O)[C@H](CC(C)C)NC(=O)[C@H](CCCCN)NC(=O)[C@H](CC(C)C)NC(=O)[C@H](CC(C)C)NC(=O)[C@H](CCCCN)NC(=O)[C@H](CCCCN)NC(=O)[C@@H](N)CC(C)C)C(=O)N[C@@H](CCCCN)C(=O)N[C@@H](CCCCN)C(=O)N[C@@H](CC(C)C)C(=O)N1)C(=O)N[C@@H](C)C(=O)NCC(=O)O [LKKLLKLCKKLCKLAG]	20 (≈ 36 µg/mL)		5 (≈ 8.99 µg/mL)	MIC [6]: > 40 µM
CC[C@H](C)[C@H](NC(=O)[C@H](Cc1ccccc1)NC(=O)[C@H](CO)NC(=O)[C@H](CCCCN)NC(=O)[C@H](Cc1c[nH]c2ccccc12)NC(=O)[C@@H](N)CCCCN)C(=O)N[C@@H](CCCCN)C(=O)N[C@@H](CCCCN)C(=O)N[C@@H](CC(C)C)C(=O)N[C@H](C(=O)N[C@@H](CC(C)C)C(=O)N[C@@H](CCCCN)C(=O)N[C@@H](Cc1ccccc1)C(=O)N[C@@H](CC(C)C)C(=O)N[C@@H](Cc1cnc[nH]1)C(=O)N[C@@H](CO)C(=O)N[C@@H](CCCCN)C(=O)N[C@@H](CCCCN)C(=O)N[C@@H](CCCCN)C(=O)N[C@@H](Cc1ccccc1)C(N)=O)[C@@H](C)O [KWKSFIKKLTLKFLHSKKKF]				MIC [5]: > 19.7 µM
NCC(=O)N[C@@H](CCCN=C(N)N)C(=O)N[C@@H](CCCN=C(N)N)C(=O)N1CCC[C@H]1C(=O)N[C@@H](CCCN=C(N)N)C(=O)N1CCC[C@H]1C(=O)N[C@@H](CCCN=C(N)N)C(=O)N1CCC[C@H]1C(=O)N[C@@H](CCCN=C(N)N)C(=O)N1CCC[C@H]1C(=O)N[C@@H](Cc1c[nH]c2ccccc12)C(=O)N[C@@H](Cc1c[nH]c2ccccc12)C(=O)N[C@@H](Cc1c[nH]c2ccccc12)C(=O)N[C@@H](Cc1c[nH]c2ccccc12)C(=O)N[C@@H](Cc1c[nH]c2ccccc12)C(=O)O [GRRPRPRPRPWWWWW]			5 (≈ 10.9 µg/mL)	MIC [7]: 20 µM (≈ 43.5 µg/mL); MIC [6]: 20 µM (≈ 43.5 µg/mL)
CC[C@H](C)[C@H](NC(=O)[C@H](Cc1c[nH]c2ccccc12)NC(=O)[C@H](CCCCN)NC(=O)[C@@H]1CCCN1C(=O)[C@H](CC(C)C)NC(=O)[C@H](CCCCN)NC(=O)CNC(=O)[C@@H](NC(=O)[C@@H](NC(=O)[C@H](CO)NC(=O)[C@@H](NC(=O)[C@@H](NC(=O)[C@H](CCCCN)NC(=O)[C@H](CCC(N)=O)NC(=O)[C@H](C)NC(=O)[C@@H](N)CCSC)[C@@H](C)CC)[C@@H](C)CC)[C@@H](C)O)[C@@H](C)CC)C(=O)N[C@H](C(=O)N[C@@H](CCCCN)C(=O)N[C@H](C(=O)N[C@H](C(=O)N[C@@H](CC(N)=O)C(=O)N[C@@H](CCCCN)C(=O)N[C@@H](Cc1ccccc1)C(=O)N[C@H](C(=O)N[C@@H](CCCCN)C(=O)N[C@@H](CCCCN)C(=O)O)[C@@H](C)O)C(C)C)[C@@H](C)O)[C@@H](C)CC [MAQKIISTIGKLPKWIIKTVNKFTKK]	3.4 (≈ 10.3 µg/mL)	20.8 (≈ 62.7 µg/mL)		
CC[C@H](C)[C@H](NC(=O)[C@H](CCCCN)NC(=O)[C@H](CCCCN)NC(=O)[C@@H](N)CCC(N)=O)C(=O)N[C@@H](C)C(=O)N[C@H](C(=O)N[C@@H](CCCN=C(N)N)C(=O)N[C@@H](CC(C)C)C(=O)N[C@@H](CO)C(=O)N[C@@H](C)C(=O)O)C(C)C [QKKIAVRLSA]			28.7 (≈ 32 µg/mL)	MIC [7]: 7.19 µM (≈ 8 µg/mL); MIC [6]: > 57.5 µM
CC(C)C[C@H](NC(=O)CNC(=O)[C@H](C)NC(=O)[C@H](CC(C)C)NC(=O)[C@H](CCCCN)NC(=O)[C@H](CCCCN)NC(=O)[C@H](C)NC(=O)[C@H](CC(C)C)NC(=O)CNC(=O)[C@H](C)NC(=O)[C@H](Cc1c[nH]c2ccccc12)NC(=O)[C@H](CCCCN)NC(=O)[C@H](CCCCN)NC(=O)[C@H](C)NC(=O)[C@H](CC(C)C)NC(=O)CNC(=O)[C@H](C)NC(=O)[C@H](CC(C)C)NC(=O)[C@H](CCCCN)NC(=O)[C@@H](N)CCCCN)C(=O)N[C@@H](C)C(N)=O [KKLAGLAKKWAGLAKKLAGLA]	3.74 (≈ 8 µg/mL)	7.49 (≈ 16 µg/mL)		MIC [5]: 7.49 µM (≈ 16 µg/mL)
